Paper PMC13010326, “Fragment-Based Development of NSP14 Exonuclease Inhibitors Confounded by Batch-to-Batch Variability” (ACS Chemical Biology, 2026)
Where two headings read alike, the source gives them in different places.

What was measured:
NSP14 ExoN [1] = molecular target: T1, NSP14 ExoN (Severe acute respiratory syndrome coronavirus 2, UniProt P0DTD1); test: biochemical
NSP14 = NSP14 (Severe acute respiratory syndrome coronavirus 2, UniProt P0DTD1); test: NSP14 DSF thermal shift assay; type: binding, SARS-CoV-2; details: 1 mM compound
Procedure: In technical triplicate, NSP14 (0.15 mg mL^–1) was prepared in 20 mM HEPES pH 7.5, 200 mM NaCl, 1 mM TCEP, and 2 mM MgCl2 and mixed with 1 mM compound or 2% DMSO. Samples were rested for 10 min and then mixed with SYPRO Orange (3× concentration, Invitrogen No. S6650). Raw melting curves (25–99 °C, 0.05 °C C/s, 20 μL volume) were collected on a QuantStudio 3 (Applied Biosystems) and each replicate well was individually normalized from 0 to 100 prior to averaging.

substrate dsRNA = test: Thiazole orange dsRNA intercalation (competition) counter-screen; type: binding; details: final 0.5% DMSO
Procedure: RNase T1 inhibition assay and thiazole orange RNA intercalation counter-screening assays were conducted essentially as previously reported. The TR-FRET ExoN activity assay dsRNA substrate and Assay Buffer were used for the intercalation assay and mixed with compounds in a final 0.5% DMSO.

NSP14 ExoN [2] = molecular target: T1, NSP14 ExoN; design: method as in not given; details: small biochemical screens; promiscuous compounds; ref not given; cited from earlier work
[3] = original (first) compound batches, read-out: pIC50, inhibition of NSP14 ExoN in biochemical activity assay (converted)
[4] = biochemically active (first) batch
[5] = resynthesized, more stringently purified second batch

Cc1cc(N2CCNCC2)nc(C)n1 [Compound 1, reference compound]
IC50 (NSP14 ExoN [1]; [3]): 398 µM

Cc1csc(CNC(=O)c2cc[nH]n2)n1 [Compound 2, reference compound]
IC50 (NSP14 ExoN [1]; [3]): > 501 µM

CC(C)c1csc(CNC(=O)c2cc[nH]n2)n1 [Compound 3]
NSP14 destabilization by differential scanning fluorimetry (DSF) (NSP14; [4]): evidence of NSP14 destabilization | NSP14 destabilization by differential scanning fluorimetry (DSF) (NSP14; biochemically inactive second batch): did not | IC50 (NSP14 ExoN [1]; [3]): 2.51 µM | Activity of second batches against NSP14 ExoN (NSP14 ExoN [1]; [5]): inactive

C#Cc1nc(CNC(=O)c2cc[nH]n2)cs1 [Compound 4]
IC50 (NSP14 ExoN [1]; original (first) batch, n = 5, read-out: IC50, inhibition of NSP14 ExoN in biochemical activity assay (as printed in text for 4) (converted)): 158 µM

C=Cc1csc(CNC(=O)c2cc[nH]n2)n1 [Compound 5]
IC50 (NSP14 ExoN [1]; [3]): 251 µM

O=C(NCc1nc(C2CC2)cs1)c1cc[nH]n1 [Compound 6]
IC50 (NSP14 ExoN [1]; [3]): 50.1 µM | Activity of second batches against NSP14 ExoN (NSP14 ExoN [1]; [5]): inactive

O=C(NCc1nc(C2CC2)cs1)c1cc(CNCC2CC2)[nH]n1 [Compound 12, 5-(((Cyclopropylmethyl)amino)methyl)-N-((4-cyclopropylthiazol-2-yl)methyl)-1H-pyrazole-3-carboxamide]
NSP14 destabilization by differential scanning fluorimetry (DSF) (NSP14; [4]): evidence of NSP14 destabilization | Activity of second batches against NSP14 ExoN (NSP14 ExoN [1]): inactive | Binding to substrate dsRNA by thiazole orange competition assay (substrate dsRNA): neither bound to substrate dsRNA

CC(=O)NCc1cc(C(=O)NCc2nc(C3CC3)cs2)n[nH]1 [Compound 13]
NSP14 destabilization by differential scanning fluorimetry (DSF) (NSP14; [4]): evidence of NSP14 destabilization | Activity of second batches against NSP14 ExoN (NSP14 ExoN [1]): inactive | Binding to substrate dsRNA by thiazole orange competition assay (substrate dsRNA): neither bound to substrate dsRNA

O=C(NCc1nc(C2CC2)cs1)c1n[nH]c2ncccc12 [Compound 14]
IC50 (NSP14 ExoN [1]; [3]): 158 µM

CC(=O)NCc1cc(C(=O)NCc2nc(C(C)C)cs2)n[nH]1 [Compound 15]
IC50 (NSP14 ExoN [1]; [3]): > 501 µM

CC(C)c1csc(CNC(=O)c2cc(CNCC3CC3)[nH]n2)n1 [Compound 16]
IC50 (NSP14 ExoN [1]; [3]): > 501 µM

O=C(O)C1=CC(=C(c2ccc(O)c(C(=O)O)c2)c2ccc(O)c(C(=O)O)c2)C=CC1=O [aurintricarboxylic acid]
Inhibition of NSP14 ExoN (in words) (NSP14 ExoN [2]): can inhibit NSP14 ExoN

O=c1c2ccccc2[se]n1-c1ccccc1 [ebselen]
Inhibition of NSP14 ExoN (in words) (NSP14 ExoN [2]): can inhibit NSP14 ExoN

O=C1C=C2C(=CCOC2O)O1 (centres unmarked) [patulin]
Inhibition of NSP14 ExoN (in words) (NSP14 ExoN [2]): can inhibit NSP14 ExoN

CC(C)=CCOc1ccc(/C=C/C(=O)c2ccc(OCC=C(C)C)cc2OCC(=O)O)cc1 [sofalcone]
Inhibition of NSP14 ExoN (in words) (NSP14 ExoN [2]): can inhibit NSP14 ExoN
